Measurements taken from patent US8106055B2, “Substituted amide compounds” (Gruenenthal GmbH, priority 2007, dated 2012).

Tests used:
[1] = biological target: T1, human bradykinin 1 receptor (B1R) (Homo sapiens, UniProt P46663); test: Functional investigation on the human bradykinin 1 receptor (B1R), Ca2+ FLIPR assay in CHO K1 hB1R cells; format: cell-based; conditions: test substance 10 μM, Ca2+ FLIPR, CHO K1 hB1R cells; for inhibition at 10 µM: CHO-K1, B1R antagonism human, read-out: B1R Ant. h [10 μM] % Inhibition
T1 construct: expressed in transfected cells; host or cells: CHO K1 cells
T1 sequence (P46663 1-353): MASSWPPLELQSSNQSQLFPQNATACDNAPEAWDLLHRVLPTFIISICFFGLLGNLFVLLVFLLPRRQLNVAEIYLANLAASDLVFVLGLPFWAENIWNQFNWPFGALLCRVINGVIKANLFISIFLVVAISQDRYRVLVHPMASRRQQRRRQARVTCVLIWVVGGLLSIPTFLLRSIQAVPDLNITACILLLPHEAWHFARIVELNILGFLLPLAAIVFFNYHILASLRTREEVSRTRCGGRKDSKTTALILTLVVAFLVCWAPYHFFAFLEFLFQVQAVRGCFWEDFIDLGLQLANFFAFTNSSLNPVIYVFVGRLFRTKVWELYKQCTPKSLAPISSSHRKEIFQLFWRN
How it was run: (§1)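 Peak Ca2+-dependent fluorescence in B1R-transfected CHO K1 cells measures antagonism of an EC80 agonist challenge given 10-20 min after compound. Agonist is Lys-Des-Arg9-bradykinin for human, Des-Arg9-bradykinin for rat receptor.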

[2] = biological target: T2, bradykinin 1 receptor (B1R) of the rat (Rattus norvegicus, UniProt P97583); test: Functional investigation on the rat bradykinin 1 receptor (B1R), Ca2+ FLIPR assay in CHO K1 rB1R cells; format: cell-based; conditions: test substance 10 μM, Ca2+ FLIPR, CHO K1 rB1R cells; for inhibition at 10 µM: CHO-K1, B1R antagonism rat, read-out: B1R Ant. r [10 μM] % Inhibition
T2 construct: expressed in transfected cells; host or cells: CHO K1 cells
T2 sequence (P97583 1-337): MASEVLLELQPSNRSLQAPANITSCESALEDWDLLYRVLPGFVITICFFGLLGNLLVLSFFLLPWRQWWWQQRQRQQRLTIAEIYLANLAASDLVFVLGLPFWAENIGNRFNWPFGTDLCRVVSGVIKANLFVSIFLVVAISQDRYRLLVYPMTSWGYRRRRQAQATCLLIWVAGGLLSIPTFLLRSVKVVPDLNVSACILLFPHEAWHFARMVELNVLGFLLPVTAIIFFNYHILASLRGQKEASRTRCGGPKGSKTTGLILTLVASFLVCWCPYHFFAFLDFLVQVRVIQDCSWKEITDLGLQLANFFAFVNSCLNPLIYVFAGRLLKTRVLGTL
How it was run: as §1

Row | Compound | inhibition at 10 µM [1] [%] | inhibition at 10 µM [2] [%] | B1R Ant. h [10 μM] % Inhibition ([1]; B1R antagonism human) [%] | B1R Ant. r [10 μM] % Inhibition ([2]; B1R antagonism rat) [%]
1 | Cc1cc(C)c(S(=O)(=O)N(C)CCOCC(=O)NCC2CCC(C(c3cccs3)N(C)C)CC2)c(C)c1 (stereo not drawn) [Example 57, N-((4-((dimethylamino)(thiophen-2-yl)methyl)cyclohexyl)methyl)-2-(2-(N,2,4,6-tetramethylphenylsulfonamido)ethoxy)acetamide] | 82 | 35 | – | –
2 | CN(C)C(c1cccs1)C1CCC(CCNC(=O)COCCN(C)S(=O)(=O)c2ccc(Cl)cc2)CC1 (stereo not drawn) [Example 37, 2-(2-(4-chloro-N-methylphenylsulfonamido)ethoxy)-N-(2-(4-((dimethylamino)(thiophen-2-yl)methyl)cyclohexyl)ethyl)acetamide] | 40 | 21 | – | –
3 | Cc1ccc(S(=O)(=O)N2CCC(OCC(=O)NCC3CCC(C(c4cccs4)N(C)C)CC3)C2)cc1 (stereo not drawn) [Example 68, N-((4-((dimethylamino)(thiophen-2-yl)methyl)cyclohexyl)methyl)-2-(1-tosylpyrrolidin-3-yloxy)acetamide] | 18 | 39 | – | –
4 | COc1ccc(S(=O)(=O)N2CCCCC2COCC(=O)NCC2CCC(C(c3cccs3)N(C)C)CC2)cc1 (stereo not drawn) [Example 45, N-((4-((dimethylamino)(thiophen-2-yl)methyl)cyclohexyl)methyl)-2-((1-(4-methoxyphenylsulfonyl)piperidin-2-yl)methoxy)acetamide] | 70 | 65 | – | –
5 | COc1cc(C)c(S(=O)(=O)N2CCC(OCC(=O)NC3CCC(C(c4cccs4)N(C)C)CC3)CC2)c(C)c1C (stereo not drawn) [Example 1, N-(4-((dimethylamino)(thiophen-2-yl)methyl)cyclohexyl)-2-(1-(4-methoxy-2,3,6-trimethylphenylsulfonyl)piperidin-4-yloxy)acetamide] | 46 | -5 | – | –
6 | CN(C)C(c1cccs1)C1CCC(CNC(=O)COCCN(C)S(=O)(=O)c2ccc(Cl)cc2)CC1 (stereo not drawn) [Example 55, 2-(2-(4-chloro-N-methylphenylsulfonamido)ethoxy)-N-((4-((dimethylamino)(thiophen-2-yl)methyl)cyclohexyl)methyl)acetamide] | 11 | 34 | – | –
7 | COc1cc(C)c(S(=O)(=O)N2CCC(OCC(=O)NCC3CCC(C(c4ccccc4)N(C)C)CC3)C2)c(C)c1C (stereo not drawn) [Example 44, N-((4-((dimethylamino)(phenyl)methyl)cyclohexyl)methyl)-2-(1-(4-methoxy-2,3,6-trimethylphenylsulfonyl)pyrrolidin-3-yloxy)acetamide] | 46 | 22 | – | –
8 | COc1cc(C)c(S(=O)(=O)N2CCC(CCOCC(=O)NCCC3CCC(C(c4cccs4)N(C)C)CC3)CC2)c(C)c1C (stereo not drawn) [Example 75, N-(2-(4-((dimethylamino)(thiophen-2-yl)methyl)cyclohexyl)ethyl)-2-(2-(1-(4-methoxy-2,3,6-trimethylphenylsulfonyl)piperidin-4-yl)ethoxy)acetamide] | 15 | 15 | – | –
9 | COc1ccc(S(=O)(=O)N(C)CCOCC(=O)NC2CCC(C(c3cccs3)N(C)C)CC2)cc1 (stereo not drawn) [Example 73, N-(4-((dimethylamino)(thiophen-2-yl)methyl)cyclohexyl)-2-(2-(4-methoxy-N-methylphenylsulfonamido)ethoxy)acetamide] | 11 | 29 | – | –
10 | CN(C)C(c1cccs1)C1CCC(NC(=O)COCCN(C)S(=O)(=O)c2ccc(Cl)cc2)CC1 (stereo not drawn) [Example 83, 2-(2-(4-chloro-N-methylphenylsulfonamido)ethoxy)-N-(4-((dimethylamino) (thiophen-2-yl)methyl)cyclohexyl)acetamide] | 7 | 11 | – | –
11 | Cc1ccc(S(=O)(=O)N(C)CCOCC(=O)NCCC2CCC(C(c3cccs3)N(C)C)CC2)cc1 (stereo not drawn) [Example 82, N-(2-(4-((dimethylamino)(thiophen-2-yl)methyl)cyclohexyl)ethyl)-2-(2-(N,4-dimethylphenylsulfonamido)ethoxy)acetamide] | -2 | -1 | – | –
12 | CN(C)C(c1cccs1)C1CCC(CNC(=O)COC2CCN(S(=O)(=O)c3ccc(Cl)cc3)C2)CC1 (stereo not drawn) [Example 54, 2-(1-(4-chlorophenylsulfonyl)pyrrolidin-3-yloxy)-N-((4-((dimethylamino)(thiophen-2-yl)methyl)cyclohexyl)methyl)acetamide] | 10 | -20 | – | –
13 | COc1cc(C)c(S(=O)(=O)N(C)CCOCC(=O)NC2CCC(C(c3ccccc3)N(C)C)CC2)c(C)c1C (stereo not drawn) [Example 80, N-(4-((dimethylamino) (phenyl)methyl)cyclohexyl)-2-(2-(4-methoxy-N,2,3,6-tetramethylphenylsulfonamido)ethoxy)acetamide] | – | – | 98 | 6
14 | COc1cc(C)c(S(=O)(=O)N(C)CCOCC(=O)NCC2CCC(C(c3cccs3)N(C)C)CC2)c(C)c1 (stereo not drawn) [Example 69, N-((4-((dimethylamino)(thiophen-2-yl)methyl)cyclohexyl)methyl)-2-(2-(4-methoxy-N,2,6-trimethylphenylsulfonamido)ethoxy)acetamide] | 104 | 100 | – | –
15 | COc1cc(C)c(S(=O)(=O)N2CCCC(OCC(=O)NCC3CCC(C(c4cccs4)N(C)C)CC3)C2)c(C)c1C (stereo not drawn) [Example 60, N-((4-((dimethylamino)(thiophen-2-yl)methyl)cyclohexyl)methyl)-2-(1-(4-methoxy-2,3,6-trimethylphenylsulfonyl)piperidin-3-yloxy)acetamide] | 28 | 11 | – | –
